Measured values published in ChEMBL document CHEMBL1129248, “7-[3-(1-piperidinyl)propoxy]chromenones as potential atypical antipsychotics” (1996).

Experiments:
Rattus norvegicus [1] = organism: Rattus norvegicus; assay: Dose required to induce 50% maximum catalepsy in rat
Mus musculus [2] = assay: Inhibition of apomorphine-induced climbing behavior in mice, after peroral administration; assay type: functional; conditions: po
Mus musculus [3] = assay: (§1) Inhibition of apomorphine-induced climbing behavior in mice, after Intraperitoneal administration; assay type: functional; conditions: ip
Rattus norvegicus [4] = assay: Inhibition of apomorphine-induced stereotypy in Rat, after peroral administration; assay type: functional; conditions: po
Mus musculus [5] = assay: Inhibition of apomorphine-induced hyperactivity in mice, after peroral administration; conditions: po
Rattus norvegicus [6] = organism: Rattus norvegicus; assay: Dose required to induce 50% maximum catalepsy in rat; assay type: functional
[7] = as §1; assay type: functional; conditions: Mus musculus, ip
Mus musculus [8] = assay: Inhibition of apomorphine-induced Hyperactivity in mice, after Intraperitoneal administration; assay type: functional; conditions: ip
Rattus norvegicus [9] = assay: Percent inhibition of apomorphine-induced stereotypy in rat after an intraperitoneal dose of 50 mg/kg; assay type: functional; conditions: ip
[10] = Inhibition of apomorphine-induced climbing behavior in mice, after intraperitoneal administration; assay type: functional; conditions: Mus musculus, ip
[11] = Inhibition of apomorphine-induced hyperactivity in mice after peroral administration; assay type: functional; conditions: Mus musculus, po
Rattus norvegicus [12] = assay: Inhibition of apomorphine-induced stereotypy in rat, after peroral administration; assay type: functional; conditions: po
[13] = Inhibition of apomorphine-induced hyperactivity behavior in mice, after peroral administration; assay type: functional; conditions: Mus musculus, po
Rattus norvegicus [14] = assay: Dose required to induce 50% maximum catalepsy in rat administered perorally; assay type: functional; conditions: po
Mus musculus [15] = assay: Inhibition of apomorphine-induced hyperactivity in mice, after peroral administration; assay type: functional; conditions: po
Rattus norvegicus [16] = assay: Inhibition of apomorphine-induced stereotypy in rat after peroral administration; assay type: functional; conditions: po

SMILES | ED50 (Mus musculus [2]) [mg/kg] | ED50 (Mus musculus [8]) [mg/kg] | inhibition in vivo at 50 mg/kg (Rattus norvegicus [9]) [%] | ED50 [10] [mg/kg] | ED50 [11] [mg/kg] | also measured
Cc1nc2n(c(=O)c1CCN1CCC(c3noc4cc(F)ccc34)CC1)CCCC2 [RISPERIDONE] | 0.74 | – | – | – | – | ED50 (Rattus norvegicus [1]): 5 mg/kg; ED50 (Mus musculus [3]): 0.2 mg/kg; ED50 (Rattus norvegicus [4]): 3.8 mg/kg
O=C(CCCN1CCC(O)(c2ccc(Cl)cc2)CC1)c1ccc(F)cc1 [HALOPERIDOL] | – | – | – | – | – | ED50 (Mus musculus [5]): 0.56 mg/kg; ED50 (Rattus norvegicus [6]): 2.5 mg/kg; ED50 [7]: 0.21 mg/kg; ED50 (Rattus norvegicus [4]): 1.95 mg/kg
O=C(CCCN1CCC(Cc2ccccc2)CC1)c1ccc(F)cc1 | 15.2 | 12.3 | 46 | 2.85 | – | –
CC1CN(C(=O)c2ccc(F)cc2)CCN1CCCC(O)c1ccc(F)cc1 (configuration not stated) | > 200 | > 50 | 0 | > 50 | > 200 | –
O=C(c1ccc(F)cc1)C1CCN(CCCOc2ccc3c(=O)c(CO)coc3c2)CC1 | – | – | – | – | – | ED50 (Rattus norvegicus [12]): 35.9 mg/kg; ED50 [13]: 1.32 mg/kg; ED50 (Rattus norvegicus [14]): 14 mg/kg
CC1CN(Cc2ccccc2)CCN1CCCC(O)c1ccc(F)cc1 (configuration not stated) | > 200 | 35 | 16 | > 50 | > 200 | –
CC1CN(Cc2ccc(F)cc2)CCN1CCCC(=O)c1ccc(F)cc1 (configuration not stated) | > 200 | 45 | 19 | > 50 | > 200 | –
CCN1CCC[C@H]1CNC(=O)c1c(OC)ccc(Br)c1OC [REMOXIPRIDE] | – | – | – | 5.2 | – | ED50 (Rattus norvegicus [12]): 48.7 mg/kg; ED50 [13]: 11.1 mg/kg; ED50 (Rattus norvegicus [14]): 64.3 mg/kg
CC1CN(Cc2ccccc2)CCN1CCCC(=O)c1ccc(F)cc1 (configuration not stated) | > 200 | 30 | 30 | 28.2 | – | ED50 (Mus musculus [15]): > 200 mg/kg
CN1CCN(C2=Nc3cc(Cl)ccc3Nc3ccccc32)CC1 [CLOZAPINE] | – | – | – | – | – | ED50 (Mus musculus [5]): 11 mg/kg; ED50 (Rattus norvegicus [6]): 107 mg/kg; ED50 [7]: 7.7 mg/kg; ED50 (Rattus norvegicus [16]): 85.3 mg/kg
CC1CN(Cc2ccc(F)cc2)CCN1CCCC(O)c1ccc(F)cc1 (configuration not stated) | > 200 | 50 | 48 | 30 | > 200 | –
CC1CN(C(=O)c2ccc(F)cc2)CCN1CCCC(=O)c1ccc(F)cc1 (configuration not stated) | > 200 | > 50 | 22 | > 50 | > 200 | –
O=C(c1ccc(F)cc1)C1CCN(CCCOc2ccc(F)cc2)CC1 | 4.3 | 1.15 | – | – | 4.9 | ED50 [7]: 1.82 mg/kg
